Measurements taken from ChEMBL document CHEMBL4043168, “The design and SAR of a novel series of 2-aminopyridine based LRRK2 inhibitors” (Bioorg Med Chem Lett, 2017).

What was measured:
[1] = Ratio of drug level in mouse brain to plasma at 10 mg/kg, po; type: ADME, organism-based; conditions: read-out: BPR
[2] = target: Serine/threonine-protein kinase Chk2 (Homo sapiens) (UniProt O96017); test: Inhibition of CHK2 labeling at conserved Lys1 (VAIKIISK) in human PBMC at 1 uM
[3] = target: Kinase suppressor of Ras 1 (Homo sapiens) (UniProt Q8IVT5); test: Inhibition of KSR1 activation Loop (SKNVFYDNGK) in human PBMC at 1 uM
[4] = target: Mitogen-activated protein kinase kinase kinase 15 (Homo sapiens) (UniProt Q6ZN16); test: Inhibition of MAP3K15 conserved Lys1 (IAIKEIPER) in human PBMC at 1 uM
[5] = target: STE20-like serine/threonine-protein kinase (Homo sapiens) (UniProt Q9H2G2); test: Inhibition of SLK conserved Lys2 (DLKAGNILFTLDGDIK) in human PBMC at 1 uM
[6] = target: Leucine-rich repeat serine/threonine-protein kinase 2 (Homo sapiens, UniProt Q5S007); test: Inhibition of LRRK2 conserved Lys2 (DLKPHNVLLFTLYPNAAIIAK) in human PBMC at 0.1 uM
[7] = target: T1, Mitogen-activated protein kinase kinase kinase 6 (Homo sapiens) (UniProt O95382); test: Inhibition of MAP3K6 conserved Lys2 (DIKGDNVLINTFSGLLK) in human PBMC at 0.1 uM
T1 sequence (whole entry): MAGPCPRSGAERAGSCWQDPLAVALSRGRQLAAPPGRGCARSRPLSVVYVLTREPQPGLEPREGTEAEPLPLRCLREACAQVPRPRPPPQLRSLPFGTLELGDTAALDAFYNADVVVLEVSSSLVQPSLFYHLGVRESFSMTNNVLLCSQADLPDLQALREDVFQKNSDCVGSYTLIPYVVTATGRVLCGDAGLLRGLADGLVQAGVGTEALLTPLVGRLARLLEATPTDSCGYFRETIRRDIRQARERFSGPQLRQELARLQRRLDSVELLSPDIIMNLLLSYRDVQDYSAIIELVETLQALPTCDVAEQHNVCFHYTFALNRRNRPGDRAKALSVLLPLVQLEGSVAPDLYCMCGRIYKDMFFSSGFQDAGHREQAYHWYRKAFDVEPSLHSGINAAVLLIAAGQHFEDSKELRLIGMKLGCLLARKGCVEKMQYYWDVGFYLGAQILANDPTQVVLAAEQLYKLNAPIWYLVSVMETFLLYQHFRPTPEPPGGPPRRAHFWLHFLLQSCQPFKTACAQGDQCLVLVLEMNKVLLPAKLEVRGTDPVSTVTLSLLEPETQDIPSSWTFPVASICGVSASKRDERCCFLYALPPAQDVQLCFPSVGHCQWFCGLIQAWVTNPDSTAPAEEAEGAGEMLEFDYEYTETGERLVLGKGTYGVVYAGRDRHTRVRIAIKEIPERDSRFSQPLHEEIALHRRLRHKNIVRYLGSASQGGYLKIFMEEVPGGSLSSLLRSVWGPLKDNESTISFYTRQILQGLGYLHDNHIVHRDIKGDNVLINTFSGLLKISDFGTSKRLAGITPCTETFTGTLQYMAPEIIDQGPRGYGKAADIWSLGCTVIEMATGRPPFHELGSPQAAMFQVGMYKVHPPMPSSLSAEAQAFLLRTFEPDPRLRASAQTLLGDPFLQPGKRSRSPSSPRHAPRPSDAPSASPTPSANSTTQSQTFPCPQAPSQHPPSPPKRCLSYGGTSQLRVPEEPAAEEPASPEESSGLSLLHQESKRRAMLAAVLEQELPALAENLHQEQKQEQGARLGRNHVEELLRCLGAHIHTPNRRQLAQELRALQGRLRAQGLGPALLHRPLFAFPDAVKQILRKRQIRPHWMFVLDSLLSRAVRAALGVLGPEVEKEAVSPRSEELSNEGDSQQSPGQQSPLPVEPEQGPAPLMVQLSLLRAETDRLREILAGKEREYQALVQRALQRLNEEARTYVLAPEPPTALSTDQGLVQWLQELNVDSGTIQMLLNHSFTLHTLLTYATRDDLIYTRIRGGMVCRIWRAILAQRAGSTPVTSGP

Homo sapiens = organism: Homo sapiens; test: Inhibition of p70S6K conserved Lys2 (DLKPENIMLNHQGHVK) in human PBMC at 0.1 uM
[8] = target: Interferon-induced, double-stranded RNA-activated protein kinase (Homo sapiens) (UniProt P19525); test: Inhibition of PKR conserved Lys2 (DLKPSNIFLVDTK) in human PBMC at 0.1 uM
Chain of Interferon-induced, double-stranded RNA-activated protein kinase (Homo sapiens) (P19525 whole entry): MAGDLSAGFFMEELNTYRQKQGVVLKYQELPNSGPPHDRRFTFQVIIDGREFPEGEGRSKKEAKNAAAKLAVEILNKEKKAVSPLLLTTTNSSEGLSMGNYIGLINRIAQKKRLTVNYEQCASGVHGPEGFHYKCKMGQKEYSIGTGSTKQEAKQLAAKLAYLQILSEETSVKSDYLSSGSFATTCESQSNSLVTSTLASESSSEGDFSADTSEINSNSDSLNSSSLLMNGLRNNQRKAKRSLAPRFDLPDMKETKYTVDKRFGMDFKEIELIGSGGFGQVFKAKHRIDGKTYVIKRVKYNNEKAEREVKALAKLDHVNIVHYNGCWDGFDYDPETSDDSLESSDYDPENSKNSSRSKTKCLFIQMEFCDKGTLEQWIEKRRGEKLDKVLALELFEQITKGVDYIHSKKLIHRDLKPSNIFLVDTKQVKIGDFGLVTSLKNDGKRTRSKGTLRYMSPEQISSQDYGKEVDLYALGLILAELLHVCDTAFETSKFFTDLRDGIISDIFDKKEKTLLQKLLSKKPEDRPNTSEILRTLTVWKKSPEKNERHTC

Chain of Mitogen-activated protein kinase kinase kinase 15 (Homo sapiens) (Q6ZN16 whole entry): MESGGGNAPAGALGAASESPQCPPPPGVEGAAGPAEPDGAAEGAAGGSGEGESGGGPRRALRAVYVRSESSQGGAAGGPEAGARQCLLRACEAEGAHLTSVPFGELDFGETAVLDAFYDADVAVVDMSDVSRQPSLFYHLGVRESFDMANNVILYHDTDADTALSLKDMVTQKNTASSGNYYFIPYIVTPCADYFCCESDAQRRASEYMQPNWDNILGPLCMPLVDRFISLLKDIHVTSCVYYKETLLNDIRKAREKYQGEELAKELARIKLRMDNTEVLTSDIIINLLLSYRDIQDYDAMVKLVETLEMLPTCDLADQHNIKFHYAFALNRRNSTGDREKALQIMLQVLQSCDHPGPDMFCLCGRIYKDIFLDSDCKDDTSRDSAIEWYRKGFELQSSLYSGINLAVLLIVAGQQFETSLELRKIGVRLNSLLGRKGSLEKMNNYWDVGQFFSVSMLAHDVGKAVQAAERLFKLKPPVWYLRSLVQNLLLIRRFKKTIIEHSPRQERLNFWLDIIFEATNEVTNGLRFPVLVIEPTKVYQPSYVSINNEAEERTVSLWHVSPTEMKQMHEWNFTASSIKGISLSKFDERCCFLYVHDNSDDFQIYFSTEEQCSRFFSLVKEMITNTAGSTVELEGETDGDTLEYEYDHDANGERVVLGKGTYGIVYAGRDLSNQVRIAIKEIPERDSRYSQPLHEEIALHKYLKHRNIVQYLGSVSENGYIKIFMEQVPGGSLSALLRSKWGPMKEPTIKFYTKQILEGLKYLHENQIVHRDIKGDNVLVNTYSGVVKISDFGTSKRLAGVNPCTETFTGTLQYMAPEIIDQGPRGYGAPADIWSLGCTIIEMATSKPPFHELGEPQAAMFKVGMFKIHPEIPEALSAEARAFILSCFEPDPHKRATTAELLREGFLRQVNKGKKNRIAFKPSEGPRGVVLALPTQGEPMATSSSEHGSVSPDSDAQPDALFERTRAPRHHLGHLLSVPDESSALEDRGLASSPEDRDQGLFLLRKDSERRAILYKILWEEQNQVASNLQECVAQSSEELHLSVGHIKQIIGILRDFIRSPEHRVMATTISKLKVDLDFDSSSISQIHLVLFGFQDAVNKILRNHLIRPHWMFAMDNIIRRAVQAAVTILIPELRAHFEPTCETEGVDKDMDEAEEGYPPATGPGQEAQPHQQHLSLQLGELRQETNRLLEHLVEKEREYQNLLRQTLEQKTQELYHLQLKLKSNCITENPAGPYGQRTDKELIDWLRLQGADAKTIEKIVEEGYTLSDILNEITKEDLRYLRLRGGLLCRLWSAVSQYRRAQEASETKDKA
Chain of Serine/threonine-protein kinase Chk2 (Homo sapiens) (O96017 whole entry): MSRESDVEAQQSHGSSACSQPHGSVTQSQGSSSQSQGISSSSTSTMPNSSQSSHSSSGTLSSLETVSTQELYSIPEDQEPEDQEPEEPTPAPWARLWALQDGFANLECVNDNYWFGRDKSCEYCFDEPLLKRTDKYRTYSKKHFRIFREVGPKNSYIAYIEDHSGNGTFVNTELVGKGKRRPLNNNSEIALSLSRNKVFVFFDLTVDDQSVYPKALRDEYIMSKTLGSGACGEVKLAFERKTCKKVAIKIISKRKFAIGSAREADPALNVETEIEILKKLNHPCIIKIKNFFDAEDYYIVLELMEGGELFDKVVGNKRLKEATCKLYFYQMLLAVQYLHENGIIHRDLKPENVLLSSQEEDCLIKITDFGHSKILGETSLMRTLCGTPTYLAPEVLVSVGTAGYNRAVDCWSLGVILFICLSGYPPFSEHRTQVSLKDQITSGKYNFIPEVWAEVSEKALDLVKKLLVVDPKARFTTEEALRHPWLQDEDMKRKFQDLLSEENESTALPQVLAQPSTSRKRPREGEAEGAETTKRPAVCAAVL
Chain of Kinase suppressor of Ras 1 (Homo sapiens) (Q8IVT5 whole entry): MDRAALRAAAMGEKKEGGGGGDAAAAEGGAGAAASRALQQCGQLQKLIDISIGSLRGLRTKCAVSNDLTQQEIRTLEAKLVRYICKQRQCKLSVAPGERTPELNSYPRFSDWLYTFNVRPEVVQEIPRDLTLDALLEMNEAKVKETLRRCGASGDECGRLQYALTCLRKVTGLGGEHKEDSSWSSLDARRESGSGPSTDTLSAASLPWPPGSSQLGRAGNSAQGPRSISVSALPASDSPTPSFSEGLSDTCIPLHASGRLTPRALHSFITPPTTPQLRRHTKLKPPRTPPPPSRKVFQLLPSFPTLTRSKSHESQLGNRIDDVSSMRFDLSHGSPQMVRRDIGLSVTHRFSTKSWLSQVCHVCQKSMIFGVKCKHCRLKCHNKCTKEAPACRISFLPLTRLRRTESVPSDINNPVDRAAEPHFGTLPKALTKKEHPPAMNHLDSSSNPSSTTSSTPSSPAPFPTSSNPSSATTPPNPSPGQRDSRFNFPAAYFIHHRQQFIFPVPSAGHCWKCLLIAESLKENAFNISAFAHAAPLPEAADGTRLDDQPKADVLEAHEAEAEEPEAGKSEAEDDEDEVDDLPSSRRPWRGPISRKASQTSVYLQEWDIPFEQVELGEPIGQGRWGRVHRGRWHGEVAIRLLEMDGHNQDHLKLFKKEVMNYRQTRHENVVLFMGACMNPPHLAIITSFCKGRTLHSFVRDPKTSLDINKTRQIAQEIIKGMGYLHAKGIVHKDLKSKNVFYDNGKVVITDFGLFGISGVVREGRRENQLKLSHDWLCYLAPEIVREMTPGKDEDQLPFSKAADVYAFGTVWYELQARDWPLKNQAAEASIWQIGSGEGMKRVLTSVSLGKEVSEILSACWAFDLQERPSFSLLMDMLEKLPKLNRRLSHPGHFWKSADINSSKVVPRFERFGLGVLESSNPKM
Chain of STE20-like serine/threonine-protein kinase (Homo sapiens) (Q9H2G2 whole entry, looked up): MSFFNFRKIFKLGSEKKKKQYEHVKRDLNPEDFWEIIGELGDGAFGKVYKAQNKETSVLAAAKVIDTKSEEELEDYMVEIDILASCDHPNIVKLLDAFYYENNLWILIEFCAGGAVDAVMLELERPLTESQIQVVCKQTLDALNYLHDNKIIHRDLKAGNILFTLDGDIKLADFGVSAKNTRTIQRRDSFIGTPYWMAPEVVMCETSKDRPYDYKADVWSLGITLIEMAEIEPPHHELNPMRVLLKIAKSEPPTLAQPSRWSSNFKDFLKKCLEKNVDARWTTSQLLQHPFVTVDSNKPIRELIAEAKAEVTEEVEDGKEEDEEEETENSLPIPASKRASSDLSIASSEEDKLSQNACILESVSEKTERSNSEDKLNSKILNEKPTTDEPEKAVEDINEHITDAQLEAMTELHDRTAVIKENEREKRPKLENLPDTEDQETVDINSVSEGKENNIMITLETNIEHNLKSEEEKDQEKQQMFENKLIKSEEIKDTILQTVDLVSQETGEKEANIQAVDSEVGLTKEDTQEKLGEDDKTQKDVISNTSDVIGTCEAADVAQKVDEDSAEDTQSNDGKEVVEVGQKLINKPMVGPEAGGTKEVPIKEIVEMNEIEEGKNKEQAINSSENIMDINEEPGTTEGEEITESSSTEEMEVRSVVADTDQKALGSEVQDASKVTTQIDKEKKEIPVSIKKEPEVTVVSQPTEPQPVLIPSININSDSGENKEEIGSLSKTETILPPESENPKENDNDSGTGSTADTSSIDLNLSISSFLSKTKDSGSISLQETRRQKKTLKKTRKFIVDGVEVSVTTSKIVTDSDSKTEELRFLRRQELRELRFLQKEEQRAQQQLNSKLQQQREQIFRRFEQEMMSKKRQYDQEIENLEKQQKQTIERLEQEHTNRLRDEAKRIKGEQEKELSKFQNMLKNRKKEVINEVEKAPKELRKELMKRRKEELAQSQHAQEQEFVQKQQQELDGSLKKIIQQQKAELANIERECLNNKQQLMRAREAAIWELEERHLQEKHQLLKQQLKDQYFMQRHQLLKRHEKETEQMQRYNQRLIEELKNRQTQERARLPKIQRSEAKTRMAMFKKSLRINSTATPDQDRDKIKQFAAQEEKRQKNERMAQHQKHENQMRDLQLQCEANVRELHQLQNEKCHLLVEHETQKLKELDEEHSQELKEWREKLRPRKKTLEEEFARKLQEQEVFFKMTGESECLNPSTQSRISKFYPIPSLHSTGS

**Q.** Which results are given for `CC(C)n1cc(-c2cc(-c3ccc(CN4CCOCC4)cc3)cnc2N)nn1`?
**A.** Kp [1]: 1.3; inhibition [2]: 9.1%; inhibition [3]: 20.1%; inhibition [4]: -3.3%; inhibition [5]: 30.5%; inhibition [6]: 8.6%; inhibition [7]: -0.5%; inhibition (Homo sapiens): 25.3%; inhibition [8]: 13.7%
